Consider six molecules from patent publication US9273042B2, “5-amino[1,4]thiazines as BACE 1 inhibitors” (Hoffmann-La Roche Inc., priority 2012, dated 2016).

SMILES strings stand for the structures.

As a reminder, the IC50 is the midpoint of a concentration-inhibition curve.

Sequence of BACE1 (P56817 46-501): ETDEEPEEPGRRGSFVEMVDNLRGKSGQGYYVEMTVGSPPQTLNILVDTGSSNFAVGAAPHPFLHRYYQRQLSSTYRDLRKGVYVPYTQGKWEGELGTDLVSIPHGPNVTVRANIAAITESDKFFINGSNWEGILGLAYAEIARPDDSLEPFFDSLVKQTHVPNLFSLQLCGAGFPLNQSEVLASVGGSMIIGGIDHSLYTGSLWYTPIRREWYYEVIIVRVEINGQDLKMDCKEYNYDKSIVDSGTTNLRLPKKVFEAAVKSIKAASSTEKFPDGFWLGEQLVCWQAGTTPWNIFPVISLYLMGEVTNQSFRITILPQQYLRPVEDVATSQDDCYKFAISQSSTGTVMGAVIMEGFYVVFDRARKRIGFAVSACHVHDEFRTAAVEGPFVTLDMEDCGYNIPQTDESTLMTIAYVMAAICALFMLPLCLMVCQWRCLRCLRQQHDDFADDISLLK

The experiment concerns the target BACE1 (Homo sapiens (Human), UniProt P56817). Put plainly: Cellular Aβ-lowering assay (Abeta 40 AlphaLISA). In kind it is cell-based. As to conditions: HEK293 APP cells, 18-20 hrs incubation, Aβ 40 in culture supernatants; read-out: BACE1 cell act. Aβ40, IC50. Here is the method: Cellular Aβ-Lowering Assay:
The Abeta 40 AlphaLISA Assay can be used. The HEK293 APP cells were seeded in 96 well Microtiter plates in cell culture medium (Iscove's, plus 10% (v/v) fetal bovine serum, penicillin/streptomycin) to about 80% confluency and the compounds were added at a 3× concentration in ⅓ volume of culture medium (final DMSO concentration was kept at 1% v/v). After 18-20 hrs incubation at 37° C. and 5% CO2 in a humidified incubator, the culture supernatants were harvested for the determination of Aβ 40 concentrations using Perkin-Elmer Human Amyloid beta 1-40 (high specificity) Kit (Cat#AL275C).
In a Perkin-Elmer White Optiplate-384 (Cat#6007290), 2 ul culture supernatants were combined with 2 μl of a 10× AlphaLISA Anti-hAβAcceptor beads+Biotinylated Antibody Anti-Aβ 1-40 Mix (50 μg/mL/5 nM). After 1 hour room temperature incubation, 16 μl of a 1.25× preparation of Streptavidin (SA) Donor beads (25 μg/mL) were added and incubated for 30 minutes in the Dark. Light Emission at 615 nm was then recorded using EnVision-Alpha Reader. Levels of Aβ 40 in the culture supernatants were calculated as percentage of maximum signal (cells treated with 1% DMSO without inhibitor). The IC50 values were calculated using the Excel XLfit software.
(Bead proximity is the source of the signal in Alpha formats.)
With `C[C@@]1(c2cc(NC(=O)c3ccc(C#N)cn3)ccc2F)CSCC(N)=N1` [Example 1, (R)—N-(3-(5-amino-3-methyl-3,6-dihydro-2H-1,4-thiazin-3-yl)-4-fluorophenyl)-5-cyanopicolinamide], the IC50 stood at 11 nM. Next, `C[C@@]1(c2cc(NC(=O)c3ccc(C#N)cn3)ccc2F)CS(=O)(=O)CC(N)=N1` [Example 2, 5-Cyano-pyridine-2-carboxylic acid [3-((R)-5-amino-3-methyl-1,1-dioxo-1,2,3,6-tetrahydro-1λ6-[1,4]thiazin-3-yl)-4-fluoro-phenyl]-amide]: 8.2 nM; `C[C@@]1(c2cc(NC(=O)c3ccc(Cl)cn3)ccc2F)CS(=O)(=O)CC(N)=N1` [Example 3, 5-Chloro-pyridine-2-carboxylic acid [3-((R)-5-amino-3-methyl-1,1-dioxo-1,2,3,6-tetrahydro-1λ6-[1,4]thiazin-3-yl)-4-fluoro-phenyl]-amide]: 6.1 nM; `C[C@@]1(c2cc(NC(=O)c3ccc(OC(F)F)cn3)ccc2F)CS(=O)(=O)CC(N)=N1` [Example 4, 5-Difluoromethoxy-pyridine-2-carboxylic acid [3-((R)-5-amino-3-methyl-1,1-dioxo-1,2,3,6-tetrahydro-1λ6-[1,4]thiazin-3-yl)-4-fluoro-phenyl]-amide]: 5.7 nM. Take `CC1(C)C(N)=N[C@](C)(c2cc(NC(=O)c3ccc(C#N)cn3)ccc2F)CS1(=O)=O` [Example 6, 5-Cyano-pyridine-2-carboxylic acid [3-((R)-5-amino-3,6,6-trimethyl-1,1-dioxo-1,2,3,6-tetrahydro-1λ6-[1,4]thiazin-3-yl)-4-fluoro-phenyl]-amide]: the IC50 is 0.2 nM. Next, `C[C@@]1(c2cc(NC(=O)c3ccc(C#N)cn3)ccc2F)CS(=O)(=O)C2(CCCC2)C(N)=N1` [Example 9, 5-Cyano-pyridine-2-carboxylic acid [3-((R)-10-amino-8-methyl-6,6-dioxo-6λ6-thia-9-aza-spiro[4.5]dec-9-en-8-yl)-4-fluoro-phenyl]-amide]: 1 nM.
